Values joined by “and” are separate entries in the source; they are usually repeats but may differ in a detail not shown here. Equal values may be shown once. Inconclusive results and toxic doses are left out. Rule as the data show it: active = T/C of 150% or more; inactive = T/C below 125%.
Test system: L1210 leukemia ip in BDF1 mice, survival T/C
Experiment: NCI In Vivo Anticancer Drug Screen. Data for tumor model L1210 Leukemia (intraperitoneal) in B6D2F1 (BDF1) mice
Conditions: endpoint: mean survival time, higher = longer survival
How it was run: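 Transplantable tumor model; survival measured in treated vs vehicle control mice. Value = treated/control.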

[1] = dose: 50.0 mg/kg/injection, schedule: Q01DX009 (ip), vehicle: saline with Tween-80
[2] = dose: 100.0 mg/kg/injection, schedule: Q01DX001 (ip), vehicle: saline with Tween-80
[3] = dose: 100.0 mg/kg/injection, schedule: Q04DX002 (ip), vehicle: saline
[4] = dose: 200.0 mg/kg/injection, schedule: Q01DX001 (ip), vehicle: saline with Tween-80
[5] = dose: 200.0 mg/kg/injection, schedule: Q04DX002 (ip), vehicle: saline
[6] = dose: 400.0 mg/kg/injection, schedule: Q04DX002 (ip), vehicle: saline
[7] = dose: 100.0 mg/kg/injection, schedule: Q04DX003 (ip), vehicle: Klucel (hydroxypropylcellulose) (HPC)
[8] = dose: 200.0 mg/kg/injection, schedule: Q04DX003 (ip), vehicle: Klucel (hydroxypropylcellulose) (HPC)
[9] = dose: 400.0 mg/kg/injection, schedule: Q04DX003 (ip), vehicle: Klucel (hydroxypropylcellulose) (HPC)
[10] = dose: 100.0 mg/kg/injection, schedule: Q01DX009 (ip), vehicle: saline
[11] = dose: 100.0 mg/kg/injection, schedule: Q04DX003 (ip), vehicle: saline
[12] = dose: 200.0 mg/kg/injection, schedule: Q01DX009 (ip), vehicle: saline
[13] = dose: 200.0 mg/kg/injection, schedule: Q04DX003 (ip), vehicle: saline
[14] = dose: 400.0 mg/kg/injection, schedule: Q01DX009 (ip), vehicle: saline
[15] = dose: 400.0 mg/kg/injection, schedule: Q04DX003 (ip), vehicle: saline
[16] = dose: 100.0 mg/kg/injection, schedule: Q04DX002 (ip), vehicle: Klucel (hydroxypropylcellulose) (HPC)
[17] = dose: 200.0 mg/kg/injection, schedule: Q04DX002 (ip), vehicle: Klucel (hydroxypropylcellulose) (HPC)
[18] = dose: 100.0 mg/kg/injection, schedule: Q01DX001 (ip), vehicle: carboxymethylcellulose (CMC)
[19] = dose: 100.0 mg/kg/injection, schedule: Q01DX009 (ip), vehicle: carboxymethylcellulose (CMC)
[20] = dose: 200.0 mg/kg/injection, schedule: Q01DX001 (ip), vehicle: carboxymethylcellulose (CMC)
[21] = dose: 200.0 mg/kg/injection, schedule: Q01DX009 (ip), vehicle: carboxymethylcellulose (CMC)
[22] = dose: 400.0 mg/kg/injection, schedule: Q01DX001 (ip), vehicle: carboxymethylcellulose (CMC)

Measured: T/C

COc1ccc(/C=N/NC(=O)CCCCCCCCC(=O)N/N=C/c2ccc(OC)c(OC)c2)cc1OC
inactive: dose: 25.0 mg/kg/injection, schedule: Q01DX009 (ip), vehicle: saline with Tween-80 98 % of control and 105 % of control | [1] 97 % of control and 101 % of control | [2] 95 % of control | [3] 90 % of control | dose: 100.0 mg/kg/injection, schedule: Q04DX003 (ip), vehicle: saline with Tween-80 94 % of control | [4] 114 % of control | [5] 97 % of control and 90 % of control | dose: 200.0 mg/kg/injection, schedule: Q04DX003 (ip), vehicle: saline with Tween-80 109 % of control | [6] 101 % of control and 103 % of control | dose: 400.0 mg/kg/injection, schedule: Q04DX003 (ip), vehicle: saline with Tween-80 96 % of control

O=C(Nc1ccccc1F)Nc1cc(Cl)ccc1Cl
inactive: dose: 100.0 mg/kg/injection, schedule: Q01DX009 (ip), vehicle: saline sonified 91 % of control | [7] 89 % of control | dose: 200.0 mg/kg/injection, schedule: Q01DX009 (ip), vehicle: saline sonified 93 % of control | [8] 94 % of control | dose: 400.0 mg/kg/injection, schedule: Q01DX009 (ip), vehicle: saline sonified 93 % of control | [9] 86 % of control

OCC(O)C(O)C(O)C(Sc1ccccc1)Sc1ccccc1 (stereo not drawn)
inactive: dose: 75.0 mg/kg/injection, schedule: Q01DX001 (ip), vehicle: saline 97 % of control | dose: 100.0 mg/kg/injection, schedule: Q01DX001 (ip), vehicle: other 95 % of control | dose: 150.0 mg/kg/injection, schedule: Q01DX001 (ip), vehicle: saline 102 % of control | dose: 200.0 mg/kg/injection, schedule: Q01DX001 (ip), vehicle: other 101 % of control | dose: 300.0 mg/kg/injection, schedule: Q01DX001 (ip), vehicle: saline 102 % of control | dose: 400.0 mg/kg/injection, schedule: Q01DX001 (ip), vehicle: other 97 % of control

O=C(O)C1C2C=CC(CO)(O2)C1C(=O)O (stereo not drawn)
inactive: [10] 97 % of control | [11] 97 % of control | [12] 100 % of control | [13] 92 % of control | [14] 96 % of control | [15] 95 % of control

NOCCCCON
inactive: dose: 25.0 mg/kg/injection, schedule: Q01DX009 (ip), vehicle: saline 98 % of control and 103 % of control | dose: 25.0 mg/kg/injection, schedule: Q04DX002 (ip), vehicle: saline 93 % of control and 97 % of control | dose: 50.0 mg/kg/injection, schedule: Q01DX009 (ip), vehicle: saline 95 % of control and 97 % of control | dose: 50.0 mg/kg/injection, schedule: Q04DX002 (ip), vehicle: saline 96 % of control and 101 % of control | dose: 50.0 mg/kg/injection, schedule: Q04DX003 (ip), vehicle: saline 98 % of control | dose: 100.0 mg/kg/injection, schedule: Q01DX001 (ip), vehicle: saline 101 % of control | [10] 100 % of control [middle of 4 runs] | [3] 93 % of control and 94 % of control | [11] 95 % of control | dose: 200.0 mg/kg/injection, schedule: Q01DX001 (ip), vehicle: saline 102 % of control | [12] 95 % of control and 102 % of control | [5] 96 % of control and 105 % of control | [13] 93 % of control | dose: 400.0 mg/kg/injection, schedule: Q01DX001 (ip), vehicle: saline 104 % of control | [6] 98 % of control and 110 % of control

Fc1ccc(Cc2nnc(Cc3ccc(F)cc3)nn2)cc1
inactive: [16] 105 % of control | [17] 102 % of control

CC1=Nc2c(c(C(C)(C)C)c3nc(C)oc3c2C(C)(C)C)C1
inactive: [2] 97 % of control | [4] 94 % of control | dose: 400.0 mg/kg/injection, schedule: Q01DX001 (ip), vehicle: saline with Tween-80 94 % of control

CCOC(=O)/C=C(\C)OC
inactive: dose: 100.0 mg/kg/injection, schedule: Q01DX009 (ip), vehicle: Klucel (hydroxypropylcellulose) (HPC) 102 % of control | [7] 96 % of control | dose: 200.0 mg/kg/injection, schedule: Q01DX009 (ip), vehicle: Klucel (hydroxypropylcellulose) (HPC) 97 % of control | [8] 105 % of control | dose: 400.0 mg/kg/injection, schedule: Q01DX009 (ip), vehicle: Klucel (hydroxypropylcellulose) (HPC) 94 % of control | [9] 100 % of control

COc1ccc(OC)c(NC(=O)Nc2ccc(Cl)cc2[N+](=O)[O-])c1
inactive: dose: 100.0 mg/kg/injection, schedule: Q01DX009 (ip), vehicle: saline with Tween-80 91 % of control | dose: 200.0 mg/kg/injection, schedule: Q01DX009 (ip), vehicle: saline with Tween-80 97 % of control | dose: 400.0 mg/kg/injection, schedule: Q01DX009 (ip), vehicle: saline with Tween-80 89 % of control

C(=NC1CCCCC1)=NC1CCCCC1
inactive: dose: 2.5 mg/kg/injection, schedule: Q04DX003 (ip), vehicle: Klucel (hydroxypropylcellulose) (HPC) 105 % of control | dose: 5.0 mg/kg/injection, schedule: Q04DX003 (ip), vehicle: Klucel (hydroxypropylcellulose) (HPC) 105 % of control | dose: 10.0 mg/kg/injection, schedule: Q04DX003 (ip), vehicle: Klucel (hydroxypropylcellulose) (HPC) 106 % of control

CC(Br)C(=O)NCC(=O)NCC(=O)O (stereo not drawn)
inactive: [10] 100 % of control | [11] 101 % of control | [12] 89 % of control | [13] 101 % of control | [14] 90 % of control | [15] 97 % of control

NC1(C(=O)O)CCc2ccccc2C1 (stereo not drawn)
inactive: [7] 91 % of control | [9] 99 % of control

CCC1CC2CC(c3cc4c(cc3OC)N(C)C3C(O)(C(=O)OC)C(OC(C)=O)C5(CC)C=CCN6CCC43C65)c3[nH]c4ccccc4c3CCN(C1)C2 (stereo not drawn)
inactive: dose: 0.25 mg/kg/injection, schedule: Q01DX009 (ip), vehicle: Klucel (hydroxypropylcellulose) (HPC) 100 % of control | dose: 0.5 mg/kg/injection, schedule: Q01DX009 (ip), vehicle: Klucel (hydroxypropylcellulose) (HPC) 105 % of control | dose: 1.0 mg/kg/injection, schedule: Q01DX009 (ip), vehicle: Klucel (hydroxypropylcellulose) (HPC) 101 % of control | dose: 2.0 mg/kg/injection, schedule: Q01DX009 (ip), vehicle: Klucel (hydroxypropylcellulose) (HPC) 97 % of control | dose: 4.0 mg/kg/injection, schedule: Q01DX009 (ip), vehicle: Klucel (hydroxypropylcellulose) (HPC) 110 % of control | dose: 8.0 mg/kg/injection, schedule: Q01DX009 (ip), vehicle: Klucel (hydroxypropylcellulose) (HPC) 103 % of control

CN(C)C(=O)Sc1ccc(S(=O)(=O)F)cc1Cl
inactive: [7] 101 % of control | [8] 106 % of control | [9] 101 % of control

CSc1ccc(OC(=O)Nc2ccc(Cl)cc2)cc1C
inactive: [18] 89 % of control | [19] 97 % of control and 100 % of control | [16] 103 % of control | dose: 100.0 mg/kg/injection, schedule: Q04DX002 (ip), vehicle: carboxymethylcellulose (CMC) 106 % of control and 108 % of control | [20] 102 % of control | [21] 93 % of control and 97 % of control | [17] 98 % of control | dose: 200.0 mg/kg/injection, schedule: Q04DX002 (ip), vehicle: carboxymethylcellulose (CMC) 94 % of control and 108 % of control | [22] 93 % of control | dose: 400.0 mg/kg/injection, schedule: Q04DX002 (ip), vehicle: Klucel (hydroxypropylcellulose) (HPC) 92 % of control | dose: 400.0 mg/kg/injection, schedule: Q04DX002 (ip), vehicle: carboxymethylcellulose (CMC) 95 % of control and 104 % of control

Cc1cc2nc(Cc3ccccc3)[nH]c2cc1C
inactive: [1] 90 % of control

CCCCCCCCCCCCCCCC(=O)N(CCCC)CCCC
inactive: [18] 98 % of control | [19] 96 % of control and 110 % of control | dose: 100.0 mg/kg/injection, schedule: Q04DX003 (ip), vehicle: carboxymethylcellulose (CMC) 96 % of control | [20] 102 % of control | [21] 100 % of control and 110 % of control | dose: 200.0 mg/kg/injection, schedule: Q04DX003 (ip), vehicle: carboxymethylcellulose (CMC) 94 % of control | [22] 102 % of control | dose: 400.0 mg/kg/injection, schedule: Q01DX009 (ip), vehicle: carboxymethylcellulose (CMC) 96 % of control and 104 % of control | dose: 400.0 mg/kg/injection, schedule: Q04DX003 (ip), vehicle: carboxymethylcellulose (CMC) 96 % of control

Source: PubChem BioAssay AID248 (DTP/NCI, 2004)
